Test systems include E3; E1; E2.
Holding throughout (experiment): fluorogenic AMC release, Michaelis-Menten fit
Format in all cases: biochemical, Blattella germanica
Details in all cases: read-out: Substrate Km (μM) / QAR / Trypsin; 50 mM Tris-HCl pH 8, 0.2% NP40, 1.5 mM CaCl2

SMILES strings stand for the structures. Residues, ends and D or L forms follow the SMILES beside them. *: point of attachment. AMC = Cc1cc(=O)oc2cc(N*)ccc12; Boc = CC(C)(C)OC(=O)*

Turning to `Cc1cc(=O)oc2cc(NC(=O)[C@H](CCCNC(=N)N)NC(=O)[C@H](C)NC(=O)[C@H](CCC(N)=O)NC(=O)OC(C)(C)C)ccc12` [QAR, Boc-Glutamine-Alanine-Arginine (QAR)-aminomethylcoumarin] (Boc-Gln-Ala-Arg-{AMC}), the Km in the assay with E3 was 3 ± 0.3 µM; in the assay on E1, 3 ± 0.8 µM; with E2, 2 ± 0.3 µM.

For the origin of these results see paper PMC5501740 (Clinical and experimental allergy : journal of the British …, 2017).
